Source: patent US8921362B2, “6,7-dialkoxy quinazoline derivatives and methods of treating drug resistant and other tumors” (Natco Pharma Limited, priority 2008, dated 2014)

Columns and labels:
Assay in all cases: KinomeScan
Format in all cases: binding
Settings in all cases: read-out: % Ctrl @ 10000 nM
LATS2 = target: T1, LATS2 (Homo sapiens, UniProt Q9NRM7)
T1 construct: host or cells: T7 phage grown in E. coli host derived from BL21
How it was run: (§1)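 qPCR titer; phage-tagged kinase vs bead ligand; compound diluted from 40× DMSO stock; 2.5% DMSO control.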

[1] = target: T2, JAK2(JH1domain- catalytic) (Homo sapiens, UniProt O60674)
T2 construct: JAK2(JH1domain- catalytic); host or cells: T7 phage grown in E. coli host derived from BL21
How it was run: as §1

KIT(V559D) = target: T3, KIT(V559D) (Homo sapiens, UniProt P10721, V559D)
T3 construct: host or cells: T7 phage grown in E. coli host derived from BL21
How it was run: as §1

PDGFRB = target: T4, PDGFRB (Homo sapiens, UniProt P09619)
T4 construct: host or cells: E. coli host derived from BL21, infected with T7 phage
How it was run: as §1

MEK1 = target: T5, MEK1 (Homo sapiens, UniProt Q02750)
T5 construct: host or cells: E. coli host derived from the BL21 strain, infected with T7 phage
How it was run: as §1

DCAMKL1 = target: T6, DCAMKL1 (Homo sapiens, UniProt O15075)
T6 construct: purchased Ambit Biosciences Corp (KinomeScan); host or cells: T7 phage in E. coli host derived from BL21
T6 sequence (O15075 whole entry): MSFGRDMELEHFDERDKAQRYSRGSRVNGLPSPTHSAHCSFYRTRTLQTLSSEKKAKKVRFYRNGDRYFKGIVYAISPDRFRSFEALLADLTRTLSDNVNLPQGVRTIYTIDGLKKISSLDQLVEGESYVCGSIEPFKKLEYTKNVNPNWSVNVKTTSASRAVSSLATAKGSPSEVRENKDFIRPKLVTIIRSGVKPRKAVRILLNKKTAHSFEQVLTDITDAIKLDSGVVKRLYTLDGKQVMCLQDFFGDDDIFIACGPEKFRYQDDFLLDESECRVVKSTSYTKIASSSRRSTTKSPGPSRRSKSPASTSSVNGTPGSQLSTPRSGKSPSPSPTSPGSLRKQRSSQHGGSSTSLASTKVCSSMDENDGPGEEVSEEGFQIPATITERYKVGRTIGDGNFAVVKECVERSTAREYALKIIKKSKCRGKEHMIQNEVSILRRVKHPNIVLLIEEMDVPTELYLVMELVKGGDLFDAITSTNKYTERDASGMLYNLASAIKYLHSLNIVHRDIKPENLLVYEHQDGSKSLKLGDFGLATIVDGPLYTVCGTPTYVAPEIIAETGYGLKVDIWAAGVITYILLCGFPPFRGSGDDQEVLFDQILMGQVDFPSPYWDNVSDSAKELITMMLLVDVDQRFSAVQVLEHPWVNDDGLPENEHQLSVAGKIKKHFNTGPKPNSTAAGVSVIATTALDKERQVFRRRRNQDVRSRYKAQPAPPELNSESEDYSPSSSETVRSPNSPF
How it was run: as §1

ITK = target: T7, ITK (Homo sapiens, UniProt Q08881)
T7 construct: host or cells: T7 phage grown in E. coli host derived from BL21
How it was run: as §1

BRK = target: T8, BRK (Homo sapiens, UniProt Q13882)
T8 construct: host or cells: E. coli host derived from BL21
T8 sequence (Q13882 whole entry): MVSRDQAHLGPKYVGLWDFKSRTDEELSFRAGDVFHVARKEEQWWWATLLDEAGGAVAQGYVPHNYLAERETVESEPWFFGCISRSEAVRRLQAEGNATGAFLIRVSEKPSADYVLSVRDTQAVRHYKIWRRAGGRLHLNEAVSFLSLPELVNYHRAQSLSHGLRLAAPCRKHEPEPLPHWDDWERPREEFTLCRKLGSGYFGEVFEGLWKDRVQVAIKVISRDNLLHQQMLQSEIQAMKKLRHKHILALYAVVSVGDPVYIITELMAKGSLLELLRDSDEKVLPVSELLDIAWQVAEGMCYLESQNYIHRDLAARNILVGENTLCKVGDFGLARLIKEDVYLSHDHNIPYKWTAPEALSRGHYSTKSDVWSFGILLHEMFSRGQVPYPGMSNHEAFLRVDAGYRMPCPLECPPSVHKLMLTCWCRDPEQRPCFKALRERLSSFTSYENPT
How it was run: as §1

CAMK1G = target: T9, CAMK1G (Homo sapiens, UniProt Q96NX5)
T9 construct: host or cells: E. coli host derived from BL21
How it was run: as §1

MARK2 = target: T10, MARK2 (Homo sapiens, UniProt Q7KZI7)
T10 construct: host or cells: E. coli host derived from the BL21 strain, infected with T7 phage
How it was run: as §1

EGFR(L861Q) = target: T11, EGFR(L861Q) (Homo sapiens, UniProt P00533, L861Q)
T11 construct: purchased Ambit Biosciences Corp; host or cells: T7 phage in E. coli host derived from BL21
How it was run: as §1

TYRO3 = target: T12, TYRO3 (Homo sapiens, UniProt Q06418)
T12 construct: host or cells: E. coli host derived from BL21, T7 phage
How it was run: as §1

PKN1 = target: T13, PKN1 (Homo sapiens, UniProt Q16512)
T13 construct: host or cells: T7 phage in E. coli host derived from BL21
How it was run: as §1

EPHB4 = target: T14, EPHB4 (Homo sapiens, UniProt P54760)
T14 construct: purchased Ambit Biosciences Corp; host or cells: T7 phage in E. coli host derived from BL21
T14 sequence (P54760 16-987): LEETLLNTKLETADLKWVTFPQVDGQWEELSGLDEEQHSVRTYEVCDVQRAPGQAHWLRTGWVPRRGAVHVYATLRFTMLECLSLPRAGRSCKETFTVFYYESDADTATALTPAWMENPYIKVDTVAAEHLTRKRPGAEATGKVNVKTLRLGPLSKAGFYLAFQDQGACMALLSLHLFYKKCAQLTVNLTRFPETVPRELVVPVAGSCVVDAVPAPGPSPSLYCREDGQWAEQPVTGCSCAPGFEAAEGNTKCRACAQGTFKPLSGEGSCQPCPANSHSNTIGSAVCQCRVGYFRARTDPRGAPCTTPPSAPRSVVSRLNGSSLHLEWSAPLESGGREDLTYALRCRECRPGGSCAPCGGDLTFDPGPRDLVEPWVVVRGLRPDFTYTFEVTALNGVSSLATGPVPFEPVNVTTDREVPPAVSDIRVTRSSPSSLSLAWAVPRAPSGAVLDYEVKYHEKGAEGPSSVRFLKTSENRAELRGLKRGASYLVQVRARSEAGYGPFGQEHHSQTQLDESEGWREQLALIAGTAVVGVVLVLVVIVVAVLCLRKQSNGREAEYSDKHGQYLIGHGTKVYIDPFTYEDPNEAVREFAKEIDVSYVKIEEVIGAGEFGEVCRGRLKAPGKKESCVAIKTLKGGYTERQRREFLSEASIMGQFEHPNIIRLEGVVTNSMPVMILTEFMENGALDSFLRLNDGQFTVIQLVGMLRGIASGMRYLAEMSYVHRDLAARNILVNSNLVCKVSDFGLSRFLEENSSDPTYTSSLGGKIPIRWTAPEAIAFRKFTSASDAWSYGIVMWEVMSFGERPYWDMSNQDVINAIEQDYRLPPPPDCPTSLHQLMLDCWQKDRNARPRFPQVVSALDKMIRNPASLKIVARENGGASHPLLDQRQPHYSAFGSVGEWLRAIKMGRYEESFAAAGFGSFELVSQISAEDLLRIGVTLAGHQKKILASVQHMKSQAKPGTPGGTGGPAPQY
How it was run: as §1

EGFR(G719S) = target: T15, EGFR(G719S) (Homo sapiens, UniProt P00533, G719S)
T15 construct: purchased Ambit Biosciences Corp (KinomeScan); host or cells: T7 phage in E. coli host derived from BL21
How it was run: as §1

MET = target: T16, MET (Homo sapiens, UniProt P08581)
T16 construct: host or cells: E. coli host derived from the BL21 strain, infected with T7 phage
How it was run: as §1

[2] = target: T17, JAK1(JH1domain-catalytic) (Homo sapiens, UniProt P23458)
T17 construct: JAK1(JH1domain-catalytic); host or cells: T7 phage grown in E. coli host derived from BL21
T17 sequence (P23458 875-1153 limits assumed): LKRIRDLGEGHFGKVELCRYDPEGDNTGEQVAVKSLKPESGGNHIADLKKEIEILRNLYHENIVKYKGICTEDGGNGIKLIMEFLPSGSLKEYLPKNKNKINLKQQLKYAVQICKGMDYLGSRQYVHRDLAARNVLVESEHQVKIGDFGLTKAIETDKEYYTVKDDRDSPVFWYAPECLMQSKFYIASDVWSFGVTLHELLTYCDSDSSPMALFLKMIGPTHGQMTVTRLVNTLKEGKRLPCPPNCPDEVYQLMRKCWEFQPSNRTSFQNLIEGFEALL
How it was run: as §1

FLT3(N8411) = target: T18, FLT3(N8411) (Homo sapiens, UniProt P36888, N841I)
T18 construct: host or cells: T7 phage in E. coli host derived from BL21
How it was run: as §1

CSNK1D = target: T19, CSNK1D (Homo sapiens, UniProt P48730)
T19 construct: host or cells: T7 phage in E. coli host derived from BL21
How it was run: as §1

CIT = target: T20, CIT (Homo sapiens, UniProt O14578)
T20 construct: host or cells: T7 phage in E. coli host derived from BL21
How it was run: as §1

RET(V804L) = target: T21, RET(V804L) (Homo sapiens, UniProt P07949, V804L)
T21 construct: host or cells: E. coli host derived from BL21, T7 phage display
T21 sequence (P07949 29-1114 V804L): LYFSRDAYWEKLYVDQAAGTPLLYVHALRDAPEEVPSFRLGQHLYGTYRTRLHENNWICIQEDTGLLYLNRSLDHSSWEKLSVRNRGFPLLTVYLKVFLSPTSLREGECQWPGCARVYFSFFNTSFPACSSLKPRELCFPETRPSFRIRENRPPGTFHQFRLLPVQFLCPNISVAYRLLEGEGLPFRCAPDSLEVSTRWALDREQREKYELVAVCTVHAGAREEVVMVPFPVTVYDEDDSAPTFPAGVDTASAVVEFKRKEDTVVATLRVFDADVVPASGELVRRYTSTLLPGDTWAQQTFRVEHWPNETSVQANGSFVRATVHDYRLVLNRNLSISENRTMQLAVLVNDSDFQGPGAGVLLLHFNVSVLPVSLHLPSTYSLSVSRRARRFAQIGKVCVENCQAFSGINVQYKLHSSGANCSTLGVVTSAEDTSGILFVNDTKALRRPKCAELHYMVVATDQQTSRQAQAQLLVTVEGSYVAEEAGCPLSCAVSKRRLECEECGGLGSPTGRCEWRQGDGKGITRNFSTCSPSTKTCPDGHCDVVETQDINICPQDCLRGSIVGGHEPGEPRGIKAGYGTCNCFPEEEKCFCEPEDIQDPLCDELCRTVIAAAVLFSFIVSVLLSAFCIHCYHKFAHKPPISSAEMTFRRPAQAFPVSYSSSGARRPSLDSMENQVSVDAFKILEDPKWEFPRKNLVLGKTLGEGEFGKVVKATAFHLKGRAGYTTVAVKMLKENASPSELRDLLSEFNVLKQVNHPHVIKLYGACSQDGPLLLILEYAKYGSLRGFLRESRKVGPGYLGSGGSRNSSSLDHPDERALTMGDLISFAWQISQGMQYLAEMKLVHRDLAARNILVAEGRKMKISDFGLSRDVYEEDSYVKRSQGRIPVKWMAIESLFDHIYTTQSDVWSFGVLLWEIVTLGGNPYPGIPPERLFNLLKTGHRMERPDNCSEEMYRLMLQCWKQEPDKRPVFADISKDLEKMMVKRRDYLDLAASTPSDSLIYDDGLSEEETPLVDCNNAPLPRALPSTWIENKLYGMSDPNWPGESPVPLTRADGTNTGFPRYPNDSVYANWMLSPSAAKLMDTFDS
How it was run: as §1

DRAK1 = target: T22, DRAK1 (Homo sapiens, UniProt Q9UEE5)
T22 construct: purchased Ambit Biosciences Corp (KinomeScan); host or cells: T7 phage in E. coli host derived from BL21
How it was run: as §1

DLK = target: T23, DLK (Homo sapiens, UniProt Q12852)
T23 construct: purchased Ambit Biosciences Corp (KinomeScan); host or cells: T7 phage in E. coli host derived from BL21
How it was run: as §1

MYLK = target: T24, MYLK (Homo sapiens, UniProt Q15746)
T24 construct: host or cells: T7 phage grown in E. coli host derived from BL21
How it was run: as §1

PDPK1 = target: T25, PDPK1 (Homo sapiens, UniProt O15530)
T25 construct: host or cells: E. coli host derived from BL21, infected with T7 phage
How it was run: as §1

p38-alpha = target: T26, p38-alpha (Homo sapiens, UniProt Q16539)
T26 construct: host or cells: E. coli host derived from BL21, infected with T7 phage
How it was run: as §1

MINK = target: T27, MINK (Homo sapiens, UniProt Q8N4C8)
T27 construct: host or cells: E. coli host derived from the BL21 strain, infected with T7 phage
How it was run: as §1

SRPK3 = target: T28, SRPK3 (Homo sapiens, UniProt Q9UPE1)
T28 construct: host or cells: T7 phage grown in E. coli (BL21-derived)
How it was run: as §1

NEK7 = target: T29, NEK7 (Homo sapiens, UniProt Q8TDX7)
T29 construct: host or cells: T7 phage grown in E. coli host derived from BL21
T29 sequence (Q8TDX7 whole entry): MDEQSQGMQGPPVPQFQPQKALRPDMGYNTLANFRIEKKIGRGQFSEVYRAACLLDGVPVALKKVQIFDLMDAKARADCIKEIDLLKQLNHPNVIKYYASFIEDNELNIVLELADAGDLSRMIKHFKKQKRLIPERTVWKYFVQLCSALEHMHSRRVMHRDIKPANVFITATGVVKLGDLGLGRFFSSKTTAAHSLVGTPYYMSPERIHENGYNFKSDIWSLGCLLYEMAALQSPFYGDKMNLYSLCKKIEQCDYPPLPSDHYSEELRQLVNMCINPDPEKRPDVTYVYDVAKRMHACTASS
How it was run: as §1

MST4 = target: T30, MST4 (Homo sapiens, UniProt Q9P289)
T30 construct: host or cells: T7 phage grown in E. coli host derived from BL21
How it was run: as §1

JNK3 = target: T31, JNK3 (Homo sapiens, UniProt P53779)
T31 construct: host or cells: T7 phage grown in E. coli host derived from BL21
How it was run: as §1

PIP5K1A = target: T32, PIP5K1A (Homo sapiens, UniProt Q99755)
T32 construct: host or cells: T7 phage in E. coli host derived from BL21
How it was run: as §1

PRKCD = target: T33, PRKCD (Homo sapiens, UniProt Q05655)
T33 construct: host or cells: T7 phage in E. coli host derived from BL21
How it was run: as §1

T1 sequence (Q9NRM7 whole entry): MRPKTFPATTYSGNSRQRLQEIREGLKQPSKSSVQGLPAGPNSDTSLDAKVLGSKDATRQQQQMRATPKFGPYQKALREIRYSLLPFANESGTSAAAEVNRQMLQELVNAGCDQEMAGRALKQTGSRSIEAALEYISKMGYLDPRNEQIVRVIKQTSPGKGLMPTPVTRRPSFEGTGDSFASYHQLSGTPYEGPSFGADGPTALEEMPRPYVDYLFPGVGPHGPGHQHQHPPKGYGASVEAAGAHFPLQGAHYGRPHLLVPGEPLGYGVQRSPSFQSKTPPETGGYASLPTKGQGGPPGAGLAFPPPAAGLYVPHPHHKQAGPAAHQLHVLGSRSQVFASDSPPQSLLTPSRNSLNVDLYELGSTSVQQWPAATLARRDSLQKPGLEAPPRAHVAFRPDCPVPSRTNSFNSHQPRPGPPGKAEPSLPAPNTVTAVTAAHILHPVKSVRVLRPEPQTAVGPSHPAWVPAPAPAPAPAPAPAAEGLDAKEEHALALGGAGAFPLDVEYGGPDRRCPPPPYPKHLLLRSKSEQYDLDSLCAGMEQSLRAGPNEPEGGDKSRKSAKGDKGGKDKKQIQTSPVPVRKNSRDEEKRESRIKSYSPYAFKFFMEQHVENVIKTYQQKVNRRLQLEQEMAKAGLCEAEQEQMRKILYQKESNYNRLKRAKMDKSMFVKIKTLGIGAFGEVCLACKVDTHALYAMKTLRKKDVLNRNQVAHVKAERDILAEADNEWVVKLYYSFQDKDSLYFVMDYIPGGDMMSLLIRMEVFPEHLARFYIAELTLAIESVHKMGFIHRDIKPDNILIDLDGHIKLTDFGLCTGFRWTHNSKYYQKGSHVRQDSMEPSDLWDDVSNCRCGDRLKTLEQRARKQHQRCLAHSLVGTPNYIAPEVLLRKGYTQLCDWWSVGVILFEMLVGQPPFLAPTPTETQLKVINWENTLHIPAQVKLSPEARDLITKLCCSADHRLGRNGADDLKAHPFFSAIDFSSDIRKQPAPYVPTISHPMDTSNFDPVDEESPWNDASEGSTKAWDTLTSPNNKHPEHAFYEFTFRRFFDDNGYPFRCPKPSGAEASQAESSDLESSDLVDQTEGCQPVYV

C#Cc1cccc(Nc2ncnc3cc(OC)c(OCCCN4CCOCC4)cc23)c1 [NRC-2694, N-(3-ethynylphenyl)-7-methoxy-6-[3-(4-morpholinyl)propoxy]-4-quinazolinamine]
remaining binding at 10 µM (LATS2): 93% | remaining binding at 10 µM [1]: 38% | remaining binding at 10 µM (KIT(V559D)): 17% | remaining binding at 10 µM (PDGFRB): 10% | remaining binding at 10 µM (MEK1): 50% | remaining binding at 10 µM (DCAMKL1): 92% | remaining binding at 10 µM (ITK): 82% | remaining binding at 10 µM (BRK): 46% | remaining binding at 10 µM (CAMK1G): 75% | remaining binding at 10 µM (MARK2): 70% | remaining binding at 10 µM (EGFR(L861Q)): 0% | remaining binding at 10 µM (TYRO3): 42% | remaining binding at 10 µM (PKN1): 50% | remaining binding at 10 µM (EPHB4): 39% | remaining binding at 10 µM (EGFR(G719S)): 0% | remaining binding at 10 µM (MET): 33% | remaining binding at 10 µM [2]: 15% | remaining binding at 10 µM (FLT3(N8411)): 16% | remaining binding at 10 µM (CSNK1D): 25% | remaining binding at 10 µM (CIT): 5% | remaining binding at 10 µM (RET(V804L)): 81% | remaining binding at 10 µM (DRAK1): 51% | remaining binding at 10 µM (DLK): 92% | remaining binding at 10 µM (MYLK): 62% | remaining binding at 10 µM (PDPK1): 94% | remaining binding at 10 µM (p38-alpha): 89% | remaining binding at 10 µM (MINK): 16% | remaining binding at 10 µM (SRPK3): 38% | remaining binding at 10 µM (NEK7): 78% | remaining binding at 10 µM (MST4): 29% | remaining binding at 10 µM (JNK3): 77% | remaining binding at 10 µM (PIP5K1A): 61% | remaining binding at 10 µM (PRKCD): 84%
